Laboratory results as given in US20060063759A1, “Tricyclic steroid hormone nuclear receptor modulators” (priority 2002, published 2006).

How the values were obtained:
human MR = molecular target: T1, human MR (Homo sapiens, UniProt P08235); test: Mineralocorticoid Receptor Binding Assay ([3H]-aldosterone); conditions: [3H]-aldosterone binding, human MR expressed in Sf9 cells; read-out: MR Ki
T1 construct: The full length human MR gene is cloned from a human kidney or human brain cDNA library; His tag from the pAcHLT vector (own knowledge); made in house; host or cells: Sf9 insect cells (baculovirus, pAcHLT transfer vector)
T1 sequence (P08235 1-984): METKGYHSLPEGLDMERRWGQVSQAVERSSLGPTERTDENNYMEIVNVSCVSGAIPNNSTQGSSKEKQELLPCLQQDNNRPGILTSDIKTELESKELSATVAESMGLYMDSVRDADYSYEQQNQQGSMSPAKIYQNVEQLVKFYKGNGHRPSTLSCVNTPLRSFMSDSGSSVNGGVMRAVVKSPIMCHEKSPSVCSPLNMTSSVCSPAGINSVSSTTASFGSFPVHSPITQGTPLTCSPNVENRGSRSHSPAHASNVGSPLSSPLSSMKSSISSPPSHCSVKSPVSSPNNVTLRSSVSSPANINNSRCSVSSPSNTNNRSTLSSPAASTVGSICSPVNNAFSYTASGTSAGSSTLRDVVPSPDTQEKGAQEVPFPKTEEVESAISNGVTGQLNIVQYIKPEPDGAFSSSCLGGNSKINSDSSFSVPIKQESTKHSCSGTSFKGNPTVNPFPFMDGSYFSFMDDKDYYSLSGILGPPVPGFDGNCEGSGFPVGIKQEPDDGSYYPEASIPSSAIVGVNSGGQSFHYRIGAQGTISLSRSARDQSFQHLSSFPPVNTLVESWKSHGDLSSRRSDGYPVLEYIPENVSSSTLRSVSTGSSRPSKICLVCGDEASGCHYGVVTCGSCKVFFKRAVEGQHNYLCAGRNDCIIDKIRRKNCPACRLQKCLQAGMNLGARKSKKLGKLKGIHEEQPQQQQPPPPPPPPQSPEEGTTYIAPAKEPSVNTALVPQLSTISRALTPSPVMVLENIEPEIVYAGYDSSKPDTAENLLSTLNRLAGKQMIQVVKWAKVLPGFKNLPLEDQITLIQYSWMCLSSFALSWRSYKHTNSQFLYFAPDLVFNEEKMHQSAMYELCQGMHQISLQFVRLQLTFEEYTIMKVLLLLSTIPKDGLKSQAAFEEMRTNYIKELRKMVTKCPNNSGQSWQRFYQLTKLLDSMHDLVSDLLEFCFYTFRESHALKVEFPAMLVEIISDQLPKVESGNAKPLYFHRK
How it was run: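 Lysate supernatant of Sf9 cells expressing full-length human MR (20-25 μg protein) was incubated with 0.5 nM [3H]-aldosterone and test compound in molybdate/Tris/phosphate/glycerol buffer, pH 7.5, ~16 h at 4 °C. Bound ligand was filtered and counted by scintillation; IC50 is the concentration halving [3H]-aldosterone binding.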

glucocorticoid receptor = molecular target: T2, glucocorticoid receptor (Homo sapiens, UniProt P04150); test: Glucocorticoid Receptor Binding Assay ([3H]-dexamethasone, A549 cell extract); conditions: [3H]-dexamethasone binding, read-out: GR Ki
T2 construct: containing 50-200 ug of A549 cell extract and 1.86 nM [^3H]-dexamethasone; host or cells: A549 human lung epithelial cells (sonicated cell extract)
T2 sequence (P04150 1-777): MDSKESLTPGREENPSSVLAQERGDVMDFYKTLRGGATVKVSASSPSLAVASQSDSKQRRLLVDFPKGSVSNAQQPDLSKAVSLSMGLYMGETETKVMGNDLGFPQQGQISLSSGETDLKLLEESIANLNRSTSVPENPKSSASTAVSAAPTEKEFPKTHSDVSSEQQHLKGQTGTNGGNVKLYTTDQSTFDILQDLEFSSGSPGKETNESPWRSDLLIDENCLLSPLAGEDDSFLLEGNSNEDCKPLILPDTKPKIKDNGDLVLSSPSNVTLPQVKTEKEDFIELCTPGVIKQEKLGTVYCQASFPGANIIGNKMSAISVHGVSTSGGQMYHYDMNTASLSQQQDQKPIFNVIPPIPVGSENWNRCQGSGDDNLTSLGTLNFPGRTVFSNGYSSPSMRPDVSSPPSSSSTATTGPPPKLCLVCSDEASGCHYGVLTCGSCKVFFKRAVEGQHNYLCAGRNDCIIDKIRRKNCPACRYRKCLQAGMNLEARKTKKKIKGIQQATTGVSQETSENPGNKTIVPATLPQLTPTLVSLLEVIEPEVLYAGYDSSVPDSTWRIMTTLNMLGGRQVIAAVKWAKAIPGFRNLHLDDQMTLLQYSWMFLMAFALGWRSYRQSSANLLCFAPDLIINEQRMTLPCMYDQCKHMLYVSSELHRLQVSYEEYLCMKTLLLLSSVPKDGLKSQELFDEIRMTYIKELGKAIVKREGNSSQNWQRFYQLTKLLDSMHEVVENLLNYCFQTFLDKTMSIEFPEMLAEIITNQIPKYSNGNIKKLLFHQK
How it was run: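 A549 cell extract (50–200 ug) incubated with 1.86 nM [3H]-dexamethasone and test compound for 16 h at 4 °C in Tris-HCl pH 7.2 buffer with glycerol and molybdate. Unbound radioligand removed by dextran-coated charcoal, then supernatant bound counts measured by scintillation.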

Ki (human MR) [µM] | Ki (glucocorticoid receptor) [µM] | Compound
< 0.5 | < 0.5 | O=c1[nH]c2cc(C=C3c4ccccc4CCc4ccccc43)ccc2o1 [Example 216, 5-(10,11-Dihydro-dibenzo[a,d]cyclohepten-5-ylidenemethyl)-3H-benzooxazol-2-one]
< 0.5 | < 10 | C(=C1c2ccccc2CCc2ccccc21)c1ccc2ocnc2c1 [Example 217, 5-(10,11-Dihydro-dibenzo[a,d]cyclohepten-5-ylidenemethyl)-benzooxazole]
< 0.5 | < 1 | Cc1nc2cc(C=C3c4ccccc4CCc4ccccc43)ccc2o1 [Example 218, 5-(10,11-Dihydro-dibenzo[a,d]cyclohepten-5-ylidenemethyl)-2-methyl-benzooxazole]
< 0.5 | < 1 | C(=C1c2ccccc2CCc2ccccc21)c1ccc2cc[nH]c2c1 [Example 219, 6-(10,11-Dihydro-dibenzo[a,d]cyclohepten-5-ylidenemethyl)-1H-indole]
< 0.5 | < 10 | C(=C1c2ccccc2CCc2ccccc21)c1cccc2[nH]ccc12 [Example 220, 4-(10,11-Dihydro-dibenzo[a,d]cyclohepten-5-ylidenemethyl)-1H-indole]
< 0.5 | < 0.5 | O=c1[nH]c2cc(/C=C3/c4ccccc4CCc4c(Cl)cccc43)ccc2o1 [Example 221(a)]
< 0.5 | < 0.5 | O=c1[nH]c2cc(/C=C3\c4ccccc4CCc4c(Cl)cccc43)ccc2o1 [Example 221(b)]
< 0.5 | < 0.5 | O=c1[nH]c2cc(C=C3c4ccccc4CCc4cc(Cl)ccc43)ccc2o1 [Example 222(a), 5-(2-Chloro-10,11-dihydro-dibenzo[a,d]cyclohepten-5-ylidenemethyl)-3H-benzooxazol-2-one]
< 0.5 | < 10 | O=c1[nH]c2ccc(C=C3c4ccccc4CCc4ccccc43)cc2[nH]1 [Example 223, 5-(10,11-Dihydro-dibenzo[a,d]cyclohepten-5-ylidenemethyl)-l,3-dihydro-benzoimidazol-2-one]
< 0.5 | < 0.5 | O=C1Cc2c(C=C3c4ccccc4CCc4ccccc43)cccc2N1 [Example 224, 4-(10,11-Dihydro-dibenzo[a,d]cyclohepten-5-ylidenemethyl)-1,3-dihydro-indol-2-one]
< 0.5 | < 10 | C(=C1c2ccccc2CCc2ccccc21)c1ccccc1-c1cnccn1 [Example 225, 2-[2-(10,11-Dihydro-dibenzo[a,d]cyclohepten-5-ylidenemethyl)-phenyl]-pyrazine]
< 0.5 | < 1 | C(=C1c2ccccc2CCc2ccccc21)c1ccccc1-c1ccccn1 [Example 227, 2-[2-(10,11-Dihydro-dibenzo[a,d]cyclohepten-5-ylidenemethyl)-phenyl]-pyridine]
< 0.5 | < 1 | C(=C1c2ccccc2CCc2ccccc21)c1ccccc1-c1cccnc1 [Example 228, 3-[2-(10,11-Dihydro-dibenzo[a,d]cyclohepten-5-ylidenemethyl)-phenyl]-pyridine]
< 0.5 | < 1 | C(=C1c2ccccc2CCc2ccccc21)c1cccc(-c2ccn[nH]2)c1 [Example 229, 5-[3-(10,11-Dihydro-dibenzo[a,d]cyclohepten-5-ylidenemethyl)-phenyl]-1H-pyrazole]
< 1 | < 10 | Nc1cccc(C=C2c3ccccc3CCc3ccccc32)n1 [Example 230, 6-(10,11-Dihydro-dibenzo[a,d]cyclohepten-5-ylidenemethyl)-pyridin-2-ylamine]
< 0.5 | < 0.5 | CS(=O)(=O)Nc1cccc(C=C2c3ccccc3CCc3ccccc32)n1 [Example 231, N-[6-(10,11-Dihydro-dibenzo[a,d]cyclohepten-5-ylidenemethyl)-pyridin-2-yl]-methanesulfonamide]
< 0.5 | < 10 | CS(=O)(=O)Nc1cncc(C=C2c3ccccc3CCc3ccccc32)n1 [Example 233, N-[6-(10,11-Dihydro-dibenzo[a,d]cyclohepten-5-ylidenemethyl)-pyrazin-2-yl]-methanesulfonamide]
< 0.5 | < 0.5 | Oc1cncc(C=C2c3ccccc3CCc3ccccc32)c1 [Example 236, 5-(10,11-Dihydro-dibenzo[a,d]cyclohepten-5-ylidenemethyl)pyridin-3-ol]
< 0.5 | < 10 | C(=C1c2ccccc2CCc2ccccc21)c1cn[nH]c1 [Example 237, 4-(10,11-Dihydro-dibenzo[a,d]cyclohepten-5-ylidenemethyl)-1H-pyrazole]
< 0.5 | < 0.5 | CS(=O)(=O)Nc1cccc(/C=C2\c3ccccc3CCc3cccnc32)c1 [Example 249, (E)-N-[3-(5,6-Dihydro-benzo[5,6]cyclohepta[1,2-b]pyridin-11-ylidenemethyl)-phenyl]-methanesulfonamide]
< 0.5 | < 0.5 | CS(=O)(=O)Nc1cccc(/C=C2/c3ccccc3CCc3ncccc32)c1 [Example 251, (Z)-N-[3-(10,11-Dihydro-benzo[4,5]cyclohepta[1,2-b]pyridin-5-ylidenemethyl)-phenyl]-methanesulfonamide]
< 0.5 | < 0.5 | CS(=O)(=O)Nc1cccc(/C=C2\c3ccccc3CCc3ncccc32)c1 [Example 253, (E)-N-[3-(10,11-Dihydro-benzo[4,5]cyclohepta[1,2-b]pyridin-5-ylidenemethyl)-phenyl]-methanesulfonamide]
< 0.5 | < 0.5 | Oc1cccc(/C=C2\c3ccccc3CCc3ncccc32)c1 [Example 254, (E)-3-(10,11-Dihydro-benzo[4,5]cyclohepta[1,2-b]pyridin-5-ylidenemethyl)-phenol]
< 0.5 | < 0.5 | CS(=O)(=O)Nc1cccc(C=C2c3ccccc3C3C(c4ccccc42)C3(F)F)c1 (centres unmarked) [Example 255, N-[3-(8,8-Difluoro-4-ylidinemethyl-2,3,5,6-dibenzobicyclo[5.1.0]octane)-phenyl]-methanesulfonamide]
< 0.5 | < 1 | Oc1cccc(C=C2c3ccccc3C3C(c4ccccc42)C3(F)F)c1 (centres unmarked) [Example 256]
< 0.5 | < 0.5 | Oc1cccc(C=C2c3ccccc3C3CC3c3ccccc32)c1 (centres unmarked) [Example 258]
< 0.5 | < 0.5 | CS(=O)(=O)Nc1cccc(/C=C2\c3ccccc3NC(=O)c3ccccc32)c1 [Example 261, N-[3-(6-Oxo-5,6-dihydro-dibenzo[b,e]azepin-11-ylidenemethyl)-phenyl]-methanesulfonamide]
< 0.5 | < 0.5 | CS(=O)(=O)Nc1cccc(/C=C2\c3ccccc3CSc3ccccc32)c1 [Example 262, N-[3-(11H-10-Thia-dibenzo[a,d]cyclohepten-5-ylidenemethyl)-phenyl]-methanesulfonamide]
